Data set [1] relates to HBV. As to the kind of experiment: HBV replication in cultures of 2.2.15 cells (HBV DNA blot hybridization). Type of data set: cell-based. As to conditions: Hepatitis B virus; read-out: Antiviral Activities (EC50) HBV. On the procedure: Test compounds are then added daily for a continuous 9 day period. Culture medium (changed daily during the treatment period) is collected and stored for analysis of extracellular (virion) HBV DNA after 0, 3, 6, and 9 days of treatment. Treated cells are lysed 24 hours following day 9 of treatment for the analysis of intracellular HBV genomic forms. HBV DVA is then analyzed in a quantitative and qualitative manner for overall levels of HBV DNA (both extracellular and intracellular DNA) and the relative rate of HBV replication (intracellular DNA).
Both intracellular and extracellular HBV DNA are analyzed in order to (i) allow for verification of compound efficacy and (ii) provide possible data on the target site in the HBV replication pathway for the compound from examination of the pattern of viral replicative forms. The culture medium is changed daily during the treatment period to (i) prevent the buildup of potentially toxic metabolites derived from test compounds and (ii) provide an analysis of HBV virion production during discrete 24-hour intervals which enables a quantitative comparison of any effect on virion production.
The analysis of HBV DNA is performed using blot hybridization techniques (Southern and slot blot) and [^32P]-labeled HBV-specific probes. HBV DNA levels are measured by comparison to known amounts of HBV DNA standards applied to every nitrocellulose membrane (gel or slot blot). An AMBIS beta scanner, which measures the radioactive decay of the hybridized probes directly from the nitrocellulose membranes, is used for the quantitative analysis. Standard curves, generated by multiple analyses, are used to correlate CPM measurements made by the beta scanner with relative levels of target HBV DNA. The levels of HBV virion DNA released into the culture medium are analyzed by a slot blot hybridization procedure. HBV DNA levels are then compared to those at Day 0 to determine the effect of drug treatment.
The levels of RI and episomal monomers are used as an indicator of the relative level of HBV replication. Integrated HBV DNA is used to normalize the relative amounts of DNA in each lane because the levels of this class of HBV DNA would be expected to remain constant on a per cell basis. […] Inhibition of HBV DNA replication is indicated by the loss of RI without changes in the level of integrated HBV DNA.

The subject of data set [2] is Rhinovirus. As to the kind of experiment: Rhinovirus antiviral assay (CPE inhibition, neutral red uptake, virus yield). Type of data set: cell-based. As to conditions: Enterovirus.
Data set [3] relates to EBV. As to the kind of experiment: EBV assay: superinfection of Raji or Daudi cells with P3HR-1, immunofluorescence for EA and VCA. Format: cell-based, Epstein-Barr Virus (P3HR-1). As to conditions: human gammaherpesvirus 4; read-out: Antiviral Activities (EC50) EBV. From the text: There are two prototypes of infectious EBV. One is exemplified by the virus derived from supernatant fluids of the P3HR-1cell line. This cell line produces nontransforming virus that causes the production of early antigen (EA) after primary infection or superinfection of B cell lines. The other prototype is exemplified by the B-95-8 virus. This virus immortalized cord blood lymphocytes and induced tumors in marmosets. […] The virus used in our assays is P3HR-1.
Ramos is an exceptional B cell line derived from Burkitt's lymphoma tumor but containing no detectable EBV genome copies and is EBNA negative. Ramos/AW was obtained by in vitro infection of Ramos with the P3HR-1 virus and contains one resident EBV genome copy/cell. Raji is a Burkitt's lymphoma cell line containing 60 EBV genomes/cell, and will be the primary cell used for screening antiviral activity against EBV EA expression. Daudi is a low level producer that contains 152 EBV genome copies/cell. It spontaneously expresses EBV EA in 0.25%-0.5% of the cells. It will be used in follow-up studies to confirm activity. These cell lines respond to superinfection by EBV by expressing EA(D), EA(R), and VCA. All cell lines are maintained in RPMI-1640 medium supplemented by 10% FCS, L-glutamine and 100 μg/mL gentamicin. The cultures are fed twice weekly and the cell concentration adjusted to 3×10^5/mL. The cells are kept at 37° C. in a humidified atmosphere with 5% CO2.
Cells are infected with the P3HR-1 strain of EBV and the drugs to be tested are added after adsorption (45 minutes at 37° C.) and washing of the cell cultures. The cultures are incubated for two days in complete medium to allow viral gene expression. Following the 48 hr incubation period, the number of cells of each sample are counted and smears made. Monoclonal antibodies to the different EA components and VCA are then added to the cells incubated and washed. This is followed by a fluorescein conjugated rabbit anti-mouse Ig antibody; and the number of fluorescence positive cells in the smears are counted. The total number of cells in the cultures positive for EA or VCA are then calculated and compared.

Data set [4] relates to Respiratory Syncytial Virus. As to the kind of experiment: Respiratory syncytial virus antiviral assay (CPE inhibition, neutral red uptake). As to conditions: human respiratory syncytial virus. Format: cell-based, Respiratory syncytial virus strain Utah 89.
In data set [5] the test system is HIV. Put plainly: Anti-HIV evaluation by MTT-tetrazolium method (inhibition of CPE in MT-2 / CEM-SS cells). Type of data set: cell-based. As to conditions: Human immunodeficiency virus 1, CEM-SS; read-out: Antiviral Activities (EC50) HIV. On the procedure: This example illustrates the anti-HIV activity of various coumarin and chromene compounds which were evaluated using the published MTT-tetrazolium methods^8. Retroviral agents AZT and DDC were used as controls for comparison purposes.
The cells used for screening were the MT-2 and the human T4-lymphoblastoid cell line, CEM-SS, and were grown in RPMI 1640 medium supplemented with 10% fetal (v/v) heat-inactivated fetal calf serum and also containing 100 units/mL penicillin, 100 μg/mL streptomycin, 25 mM HEPES and 20 μg/mL gentamicin. The medium used for dilution of drugs and maintenance of cultures during the assay was the same as above. The HTLV-IIIB and HTLV-RF were propagated in CEM-SS. The appropriate amounts of the pure compounds for anti-HIV evaluations were dissolved in DMSO, then diluted in medium to the desired initial concentration. The concentrations (M medium) employed were […]; 0.001 μM; 0.0032 μM; 0.01 μM; 0.032 μM; 0.1 μM; 0.32 μM; 1 μM; 3.2 μM; 10 μM; 32 μM; and 100 μM. Each dilution was added to plates in the amount of 100 μL/well. Drugs were tested in triplicate wells per dilution with infected cells while in duplicate wells per dilution with uninfected cells for evaluation of cytotoxicity. On day 6 (CEM-SS cells) and day 7 (MT-2 cells) post-infection, the viable cells were measured with a tetrazolium salt, MTT (5 mg/mL), added to the test plates. A solution of 20% SDS in 0.001 N HCl is used to dissolve the MTT formazan produced. The optical density value was a function of the amount of formazan produced which was proportional to the number of viable cells. The percent inhibition of CPE per drug concentration was measured as a test over control and expressed in percent (T/C %).
Background: Tetrazolium assays rely on reduction of a dye to a coloured formazan, in cell work by metabolically active cells.

In data set [6] the test system is VZV. As to the kind of experiment: VZV plaque reduction assay in human foreskin fibroblast cells. Type of data set: cell-based, Varicella Zoster Virus (Ellen strain). As to conditions: Human alphaherpesvirus 3, Fibroblast; read-out: Antiviral Activities (EC50) VZV. Here is the method:
[table] Two days prior to use, HFF cells are plated into six-well plates and incubated at 37° C. with 5% CO2 and 90% humidity. On the date of assay, the drug is made up at twice the desired concentration in 2×MEM and then serially diluted 1:5 in 2×MEM using six concentrations of drug. […] The media is then aspirated from the wells and 0.2 mL of virus is added to each well in duplicate with 0.2 mL of media being added to drug toxicity wells. The plates are then incubated for one hour with shaking every fifteen minutes. […] The drug agarose mixture is applied to each well in 2 mL volume and the plates then incubated for three days, after which the cells were stained with a 1.5% solution of neutral red. At the end of 4-6 hr incubation period, the stain is aspirated, and plaques counted using a stereomicroscope at 10× magnification. The procedure is essentially the same as for the HSV plaque assay described above with two exceptions: 1. After addition of the drug, the plates are incubated for ten days. 2.
In general terms: In a plaque reduction assay, fewer plaques than in the control indicate reduced infectivity or spread.

The test system of data set [7] is Measles Virus. Put plainly: Measles virus antiviral assay (CPE inhibition, neutral red uptake, virus yield). Type of data set: cell-based, Measles virus strain CC. As to conditions: Measles morbillivirus.
Data set [8] concerns human T-lymphoblastic cells (CEM-SS). As to conditions: cited from earlier work.
In data set [9] the test system is AZT-resistant G-9106 strain of HIV. As to conditions: cited from earlier work.
Data set [10] has as its system pyridinone-resistant A17 virus. As to conditions: cited from earlier work.
In data set [11] the test system is HIV-1. As to conditions: cited from earlier work.

Converted amounts (≈) assume the structure as drawn. Read-outs that look alike come from different tables or passages of the source.

With `CCCc1cc(=O)oc2c3c(c4c(c12)OC(C)(C)[C@H](O)[C@H]4OC(=O)c1cccc(Cl)c1)O[C@H](C)[C@@H](C)C3=O`, the EC50 (usually the midpoint of the concentration-response curve) was determined as 2.6 µg/mL (≈ 4.81 µM) in [1]; 0.1 µg/mL (≈ 0.185 µM) in data set [2] (CPE inhibition, read-out: Antiviral Activities (EC50) Rhinovirus (CPE)); 0.1 µg/mL (≈ 0.185 µM) in data set [2] (neutral red (NR) dye uptake, read-out: Antiviral Activities (EC50) Rhinovirus (NR)); 4 µg/mL (≈ 7.39 µM) in [2] (read-out: Antiviral Activities (EC50) Rhinovirus (virus yield)); 29.2 µg/mL (≈ 54 µM) in [3]; 3 µg/mL (≈ 5.55 µM) in data set [4] (CPE inhibition, read-out: Antiviral Activities (EC50) Respiratory Syncitial (CPE)). Moreover, the 50% effective concentration (EC50) in [4] (neutral red (NR) dye uptake, read-out: Antiviral Activities (EC50) Respiratory Syncitial (NR)) was 4 µg/mL (≈ 7.39 µM); in data set [5], above 3 µg/mL; in data set [6] it was 3.5 µg/mL (≈ 6.47 µM); in data set [7] (CPE inhibition, read-out: Antiviral Activities (EC50) Measles (CPE)), 3 µg/mL (≈ 5.55 µM); in [7] (neutral red (NR) dye uptake, read-out: Antiviral Activities (EC50) Measles (NR)) it was 0.4 µg/mL (≈ 0.739 µM).
As to `CCCc1cc(=O)oc2c3c(c4c(c12)OC(C)(C)C=C4)O[C@H](C)[C@@H](C)[C@@H]3O` [(+)-calanolide A, (+)-Calanolide A], the IC50 (usually the concentration that inhibits the measured activity by half) in [8] was 20 µM. For the same compound, the “activity against AZT-resistant G-9106 strain of HIV” value in data set [9] was “active”. Further, the “activity against pyridinone-resistant A17 virus” value in [10] was “active”. The “protection against the cytopathic effects of HIV-1” value in data set [11] (down to a concentration of 0.1 μM) is 100%. In addition, in data set [11] (human T-lymphoblastic cells (CEM-SS), read-out: EC50, HIV-1 replication in CEM-SS), the EC50 was 0.1 µM.
Take `CCCc1cc(=O)oc2cc(OC(=O)C(C)(C)C)cc(O)c12` [Compound 7b, 5-Hydroxy-7-pivaloyloxy-4-propylcoumarin]: the melting point (as a rule, the temperature, or range, at which the solid turns liquid) lay within 158 to 160 °C.

The record behind these values is patent publication US20030176494A1, “Novel coumarin and chromene compounds and methods of preparation and use thereof for treating or preventing viral infections” (priority 2001, published 2003).
